Biological target: Delta-type opioid receptor (Homo sapiens, UniProt P41143)
Test: delta opioid receptor blockers – image-based, SAR follow-up (AID 2357)

Chain of Delta-type opioid receptor (P41143 whole entry): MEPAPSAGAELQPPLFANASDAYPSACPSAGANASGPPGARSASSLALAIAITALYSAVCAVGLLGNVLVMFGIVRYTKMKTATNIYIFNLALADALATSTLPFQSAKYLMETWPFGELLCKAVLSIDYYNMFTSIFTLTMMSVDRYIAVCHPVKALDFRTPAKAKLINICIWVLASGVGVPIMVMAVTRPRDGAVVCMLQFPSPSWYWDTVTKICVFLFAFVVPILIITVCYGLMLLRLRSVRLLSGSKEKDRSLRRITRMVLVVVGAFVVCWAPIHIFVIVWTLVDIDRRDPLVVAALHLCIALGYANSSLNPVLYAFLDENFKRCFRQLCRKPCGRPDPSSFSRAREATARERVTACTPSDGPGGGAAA

IC50 [µM]	Structure (SMILES)
32	CCC(N=Nc1ccnc2cc(Cl)ccc12)c1ccc(O)cc1 (configuration not stated) [4-[1-[2-(7-chloroquinolin-4-yl)hydrazinyl]propylidene]cyclohexa-2,5-dien-1-one]
18.9	Oc1ccc(CN=Nc2ccnc3cc(Cl)ccc23)cc1O [(4Z)-4-[[2-(7-chloroquinolin-4-yl)hydrazinyl]methylidene]-2-hydroxycyclohexa-2,5-dien-1-one]
